pIC50: −log10 of the molar value. Read-outs that look alike come from different tables or passages of the source.
How the values were obtained:
human CXCR3A = human CXCR3A (Homo sapiens (Human), UniProt P49682); experiment: FLIPR assay; type: cell-based; details: CHO-K1 cells expressing the human CXCR3A coupled to Galpha(16); CXCL10 agonist 20 nM; Fluo-4-AM fluorescence; mean values if determined several times
Summary of the method: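 CHO-K1 cells expressing CXCR3A coupled to Gα16 were loaded with Fluo-4-AM for 1 h in Hepes-buffered HBSS, pH 7.4, with 5 mM probenecid. Compound dilutions were added on the FLIPR, followed by CXCL10 (added as a 20 nM solution). Baseline-subtracted peak fluorescence was fitted to a single-site curve for IC50.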

CXCR3 = CXCR3 (Homo sapiens (Human), UniProt P49682); experiment: Receptor internalization assay; type: cell-based
Summary of the method: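 In human whole blood, compounds were incubated with CXCL10 (9 nM final) for 30 min at 37 °C to drive receptor internalization, then stained with anti-CXCR3/CD3 antibodies and lysed of red cells. Flow cytometry measured mean surface CXCR3 fluorescence on CD3+ cells, and IC50 came from single-site dose-response fits.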

[1] = human whole blood, final CXCL10 concentration 9 nM, 30 min 37° C., CXCR3 cell surface expression on CD3 positive cells, flow cytometer, read-out: Internalization IC50

Sequence of CXCR3 (P49682 whole entry): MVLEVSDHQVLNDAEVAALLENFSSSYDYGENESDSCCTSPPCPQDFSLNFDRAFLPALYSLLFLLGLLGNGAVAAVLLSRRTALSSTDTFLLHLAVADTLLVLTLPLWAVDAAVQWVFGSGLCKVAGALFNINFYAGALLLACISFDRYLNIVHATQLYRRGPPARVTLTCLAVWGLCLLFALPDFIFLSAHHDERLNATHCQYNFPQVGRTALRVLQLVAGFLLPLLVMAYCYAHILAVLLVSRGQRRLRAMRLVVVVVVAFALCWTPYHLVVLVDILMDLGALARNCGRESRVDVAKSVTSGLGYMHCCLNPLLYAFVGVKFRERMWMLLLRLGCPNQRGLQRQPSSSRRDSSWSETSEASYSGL
Sequence of human CXCR3A (P49682 whole entry): as above

SMILES	pIC50 (human CXCR3A)	pIC50 (CXCR3; [1])	pIC50 (CXCR3)
C[C@@H]1CN(c2scnc2-c2nc3ccccc3[nH]2)CCN1C(=O)Cc1n[nH]c2ccccc12 [Example 132, 1-{(R)-4-[4-(1H-Benzoimidazol-2-yl)-thiazol-5-yl]-2-methyl-piperazin-1-yl}-2-(1H-indazol-3-yl)-ethanone]	8.52	5.20	–
C[C@@H]1CN(c2scnc2-c2nc3ccccc3[nH]2)CCN1C(=O)Cn1cnc2ccncc21 [Example 137, 1-{(R)-4-[4-(1H-Benzoimidazol-2-yl)-thiazol-5-yl]-2-methyl-piperazin-1-yl}-2-imidazo[4,5-c]pyridin-3-yl-ethanone]	8.30	5.94	–
C[C@@H]1CN(c2scnc2-c2nc3ccccc3[nH]2)CCN1C(=O)Cn1cnc2cnccc21 [Example 138, 1-{(R)-4-[4-(1H-Benzoimidazol-2-yl)-thiazol-5-yl]-2-methyl-piperazin-1-yl}-2-imidazo[4,5-c]pyridin-1-yl-ethanone]	8.40	5.96	–
C[C@@H]1CN(c2scnc2-c2nc3ccccc3[nH]2)CCN1C(=O)CN1CCc2cccnc21 [Example 139, 1-{(R)-4-[4-(1H-Benzoimidazol-2-yl)-thiazol-5-yl]-2-methyl-piperazin-1-yl}-2-(2,3-dihydro-pyrrolo[2,3-b]pyridin-1-yl)-ethanone]	8.70	5.53	–
C[C@@H]1CN(c2scnc2-c2nc3ccccc3[nH]2)CCN1C(=O)Cn1ccc2ccncc21 [Example 141, 1-{(R)-4-[4-(1H-Benzoimidazol-2-yl)-thiazol-5-yl]-2-methyl-piperazin-1-yl}-2-pyrrolo[2,3-c]pyridin-1-yl-ethanone]	9.70	6.44	–
C[C@@H]1CN(c2scnc2-c2nc3ccccc3[nH]2)CCN1C(=O)Cn1ccc2ccnc(Cl)c21 [Example 142, 1-{(R)-4-[4-(1H-Benzoimidazol-2-yl)-thiazol-5-yl]-2-methyl-piperazin-1-yl}-2-(7-chloro-pyrrolo[2,3-c]pyridin-1-yl)-ethanone]	8.70	6.45	–
C[C@@H]1CN(c2scnc2-c2nc3ccccc3[nH]2)CCN1C(=O)Cn1cc(Cl)c2cccnc21 [Example 143, 1-{(R)-4-[4-(1H-Benzoimidazol-2-yl)-thiazol-5-yl]-2-methyl-piperazin-1-yl}-2-(3-chloro-pyrrolo[2,3-b]pyridin-1-yl)-ethanone]	9.00	6.14	–
Cc1nc(-c2nc3ccccc3[nH]2)c(N2CCN(C(=O)Cn3cnc4cccnc43)[C@H](C)C2)s1 [Example 144, 1-{(R)-4-[4-(1H-Benzoimidazol-2-yl)-2-methyl-thiazol-5-yl]-2-methyl-piperazin-1-yl}-2-imidazo[4,5-b]pyridin-3-yl-ethanone]	8.70	6.03	–
C[C@@H]1CN(c2sc(C(F)(F)F)nc2-c2nc3cc(Cl)ccc3[nH]2)CCN1C(=O)Cn1cnc2cccnc21 [Example 147, 1-{(R)-4-[4-(5-Chloro-1H-benzoimidazol-2-yl)-2-trifluoromethyl-thiazol-5-yl]-2-methyl-piperazin-1-yl}-2-imidazo[4,5-b]pyridin-3-yl-ethanone]	9.00	–	7.41
C[C@@H]1CN(c2sc(-c3ccccc3F)nc2-c2nc3ccccc3[nH]2)CCN1C(=O)Cn1cnc2cccnc21 [Example 148, 1-{(R)-4-[4-(1H-Benzoimidazol-2-yl)-2-(2-fluoro-phenyl)-thiazol-5-yl]-2-methyl-piperazin-1-yl}-2-imidazo[4,5-b]pyridin-3-yl-ethanone]	7.62	5.35	–
Cc1cccc(-c2nc(-c3nc4ccccc4[nH]3)c(N3CCN(C(=O)Cn4cnc5cccnc54)[C@H](C)C3)s2)c1 [Example 149, 1-{(R)-4-[4-(1H-Benzoimidazol-2-yl)-2-m-tolyl-thiazol-5-yl]-2-methyl-piperazin-1-yl}-2-imidazo[4,5-b]pyridin-3-yl-ethanone]	7.80	5.29	–
Cc1ccc(-c2nc(-c3nc4ccccc4[nH]3)c(N3CCN(C(=O)Cn4cnc5cccnc54)[C@H](C)C3)s2)cc1 [Example 150, 1-{(R)-4-[4-(1H-Benzoimidazol-2-yl)-2-p-tolyl-thiazol-5-yl]-2-methyl-piperazin-1-yl}-2-imidazo[4,5-b]pyridin-3-yl-ethanone]	7.35	5.25	–
C[C@@H]1CN(c2scnc2-c2nc3ccccc3[nH]2)CCN1C(=O)CN1C(=O)C(C)(C)c2ccccc21 [Example 151, 1-(2-{(R)-4-[4-(1H-Benzoimidazol-2-yl)-thiazol-5-yl]-2-methyl-piperazin-1-yl}-2-oxo-ethyl)-3,3-dimethyl-1,3-dihydro-indol-2-one]	8.40	6.26	–
Cc1cccc2oc(=O)n(CC(=O)N3CCN(c4scnc4-c4nc5ccccc5[nH]4)C[C@H]3C)c12 [Example 152, 3-(2-{(R)-4-[4-(1H-Benzoimidazol-2-yl)-thiazol-5-yl]-2-methyl-piperazin-1-yl}-2-oxo-ethyl)-4-methyl-3H-benzooxazol-2-one]	8.52	6.18	–
C[C@@H]1CN(c2scnc2-c2nc3ccccc3[nH]2)CCN1C(=O)Cn1c(=O)oc2cccc(F)c21 [Example 153, 3-(2-{(R)-4-[4-(1H-Benzoimidazol-2-yl)-thiazol-5-yl]-2-methyl-piperazin-1-yl}-2-oxo-ethyl)-4-fluoro-3H-benzooxazol-2-one]	8.15	5.99	–
C[C@@H]1CN(c2scnc2-c2nc3ccccc3[nH]2)CCN1C(=O)Cn1c(CO)cc2cccnc21 [Example 154, 1-{(R)-4-[4-(1H-Benzoimidazol-2-yl)-thiazol-5-yl]-2-methyl-piperazin-1-yl}-2-(2-hydroxymethyl-pyrrolo[2,3-b]pyridin-1-yl)-ethanone]	7.85	5.52	–
C[C@@H]1CN(c2scnc2-c2nc3ccccc3[nH]2)CCN1C(=O)Cn1c(=O)oc2cccnc21 [Example 155, 3-(2-{(R)-4-[4-(1H-Benzoimidazol-2-yl)-thiazol-5-yl]-2-methyl-piperazin-1-yl}-2-oxo-ethyl)-3H-oxazolo[4,5-b]pyridin-2-one]	8.22	5.96	–
COc1cc2nc(-c3ncsc3N3CCN(C(=O)Cn4cnc5cccnc54)[C@H](C)C3)[nH]c2cc1OC [Example 158, 1-{(R)-4-[4-(5,6-Dimethoxy-1H-benzoimidazol-2-yl)-thiazol-5-yl]-2-methyl-piperazin-1-yl}-2-imidazo[4,5-b]pyridin-3-yl-ethanone]	8.30	5.46	–
C[C@@H]1CN(c2scnc2-c2nc3ccc(CO)cc3[nH]2)CCN1C(=O)Cn1cnc2cccnc21 [Example 159, 1-{(R)-4-[4-(6-Hydroxymethyl-1H-benzoimidazol-2-yl)-thiazol-5-yl]-2-methyl-piperazin-1-yl}-2-imidazo[4,5-b]pyridin-3-yl-ethanone]	9.00	5.81	–
C[C@@H]1CN(c2sc(C(F)(F)F)nc2-c2nc3ccc(CO)cc3[nH]2)CCN1C(=O)Cn1cnc2cccnc21 [Example 160, 1-{(R)-4-[4-(6-Hydroxymethyl-1H-benzoimidazol-2-yl)-2-trifluoromethyl-thiazol-5-yl]-2-methyl-piperazin-1-yl}-2-imidazo[4,5-b]pyridin-3-yl-ethanone]	8.70	7.04	–
COc1cc2nc(-c3nc(C(F)(F)F)sc3N3CCN(C(=O)Cn4cnc5cccnc54)[C@H](C)C3)[nH]c2cc1OC [Example 161, 1-{(R)-4-[4-(5,6-Dimethoxy-1H-benzoimidazol-2-yl)-2-trifluoromethyl-thiazol-5-yl]-2-methyl-piperazin-1-yl}-2-imidazo[4,5-b]pyridin-3-yl-ethanone]	8.70	6.84	–
C[C@@H]1CN(c2scnc2-c2nc3ccc(C4CC4)cc3[nH]2)CCN1C(=O)Cn1cnc2cccnc21 [Example 162, 1-{(R)-4-[4-(6-Cyclopropyl-1H-benzoimidazol-2-yl)-thiazol-5-yl]-2-methyl-piperazin-1-yl}-2-imidazo[4,5-b]pyridin-3-yl-ethanone]	9.00	6.74	–
COCCOc1ccc2[nH]c(-c3nc(C(F)(F)F)sc3N3CCN(C(=O)Cn4cnc5cccnc54)[C@H](C)C3)nc2c1 [Example 163, 2-Imidazo[4,5-b]pyridin-3-yl-1-((R)-4-{4-[5-(2-methoxy-ethoxy)-1H-benzoimidazol-2-yl]-2-trifluoromethyl-thiazol-5-yl}-2-methyl-piperazin-1-yl)-ethanone]	8.30	7.33	–
C[C@@H]1CN(c2sc(C(F)(F)F)nc2-c2nc3cc(OCCO)ccc3[nH]2)CCN1C(=O)Cn1cnc2cccnc21 [Example 164, 1-((R)-4-{4-[5-(2-Hydroxy-ethoxy)-1H-benzoimidazol-2-yl]-2-trifluoromethyl-thiazol-5-yl}-2-methyl-piperazin-1-yl)-2-imidazo[4,5-b]pyridin-3-yl-ethanone]	9.00	7.03	–
CC(=O)c1ccc2[nH]c(-c3nc(C(F)(F)F)sc3N3CCN(C(=O)Cn4cnc5cccnc54)[C@H](C)C3)nc2c1 [Example 165, 1-{(R)-4-[4-(5-Acetyl-1H-benzoimidazol-2-yl)-2-trifluoromethyl-thiazol-5-yl]-2-methyl-piperazin-1-yl}-2-imidazo[4,5-b]pyridin-3-yl-ethanone]	9.00	7.01	–
CC(O)c1ccc2[nH]c(-c3nc(C(F)(F)F)sc3N3CCN(C(=O)Cn4cnc5cccnc54)[C@H](C)C3)nc2c1 (stereo partly drawn) [Example 166, 1-((R)-4-{4-[5-(1-Hydroxy-ethyl)-1H-benzoimidazol-2-yl]-2-trifluoromethyl-thiazol-5-yl}-2-methyl-piperazin-1-yl)-2-imidazo[4,5-b]pyridin-3-yl-ethanone]	9.00	6.95	–

Reference: patent US9266876B2 (Actelion Pharmaceuticals Ltd., priority 2012, dated 2016)
